Experimental data as given in ChEMBL document CHEMBL1154496, “The pharmacophore of a peptoid VEGF receptor 2 antagonist includes both side chain and main chain residues” (Bioorg Med Chem Lett, 2008).
Active and inactive are the calls of the source. No cut-off for these calls is given here. Square brackets hold non-standard residues; d marks the D form. Peptide text beside a SMILES is read from it. * marks the point of attachment. ξ: configuration not given here. X1 = O=C(O)c1cc(N2C(=O)CC(*)C2=O)ccc1-c1c2ccc(=O)cc-2oc2cc(O)ccc12; Gly(N-piperonyl) = O=C(O)CNCc1ccc2c(c1)OCO2; Nrpe = C[C@@H](NCC(=O)O)c1ccccc1; Nleu = CC(C)CNCC(=O)O; Nlys = NCCCCNCC(=O)O; ξC = NC(CS)C(=O)O

Molecular target: Vascular endothelial growth factor receptor 2 (Homo sapiens) (UniProt P35968)
Sequence (P35968 whole entry, the tested form may be a part): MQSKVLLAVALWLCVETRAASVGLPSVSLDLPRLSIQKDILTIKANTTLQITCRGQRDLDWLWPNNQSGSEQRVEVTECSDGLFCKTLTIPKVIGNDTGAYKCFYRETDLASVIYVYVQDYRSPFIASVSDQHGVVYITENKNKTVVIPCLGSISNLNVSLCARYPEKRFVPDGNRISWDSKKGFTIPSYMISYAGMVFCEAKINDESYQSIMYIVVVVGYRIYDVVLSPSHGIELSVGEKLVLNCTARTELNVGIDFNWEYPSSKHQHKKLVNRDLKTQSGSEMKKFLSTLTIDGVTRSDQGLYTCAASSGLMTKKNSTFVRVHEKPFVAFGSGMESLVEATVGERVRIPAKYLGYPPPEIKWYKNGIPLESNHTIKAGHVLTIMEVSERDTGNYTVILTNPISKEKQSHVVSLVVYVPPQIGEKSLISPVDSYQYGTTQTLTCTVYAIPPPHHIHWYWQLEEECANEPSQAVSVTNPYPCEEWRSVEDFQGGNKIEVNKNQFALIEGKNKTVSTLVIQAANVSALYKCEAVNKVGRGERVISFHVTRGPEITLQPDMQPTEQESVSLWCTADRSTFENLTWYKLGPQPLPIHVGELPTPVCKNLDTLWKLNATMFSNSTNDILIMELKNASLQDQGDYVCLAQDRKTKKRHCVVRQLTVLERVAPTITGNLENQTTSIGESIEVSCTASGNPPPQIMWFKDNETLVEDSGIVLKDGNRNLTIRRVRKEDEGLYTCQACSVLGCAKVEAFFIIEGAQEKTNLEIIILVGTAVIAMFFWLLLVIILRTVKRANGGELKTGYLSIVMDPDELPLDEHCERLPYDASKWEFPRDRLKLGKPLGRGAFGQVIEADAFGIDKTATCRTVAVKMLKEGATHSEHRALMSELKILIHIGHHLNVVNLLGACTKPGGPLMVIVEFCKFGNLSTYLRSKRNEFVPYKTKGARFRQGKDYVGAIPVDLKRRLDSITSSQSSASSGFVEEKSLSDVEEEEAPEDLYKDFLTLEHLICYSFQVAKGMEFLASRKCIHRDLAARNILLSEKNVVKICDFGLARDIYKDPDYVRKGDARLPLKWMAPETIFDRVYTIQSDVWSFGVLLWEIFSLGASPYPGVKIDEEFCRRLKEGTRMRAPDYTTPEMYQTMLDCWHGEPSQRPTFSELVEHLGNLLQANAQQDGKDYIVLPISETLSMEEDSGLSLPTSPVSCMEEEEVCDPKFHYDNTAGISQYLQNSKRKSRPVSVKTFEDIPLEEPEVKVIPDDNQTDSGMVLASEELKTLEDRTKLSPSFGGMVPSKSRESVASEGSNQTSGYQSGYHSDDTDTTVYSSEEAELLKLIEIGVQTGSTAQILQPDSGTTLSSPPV
Assay: Binding affinity to VEGFR2 extracellular domain

| Activity | SMILES |
| --- | --- |
| Active | CC(C)CN(CC(=O)N(CCCCN)CC(=O)N(CC(=O)NCC(=O)NCC(=O)NCC(=O)NCC(=O)NCC(=O)NC(CSC1CC(=O)N(c2ccc(-c3c4ccc(=O)cc-4oc4cc(O)ccc34)c(C(=O)O)c2)C1=O)C(N)=O)[C@H](C)c1ccccc1)C(=O)CN (stereo partly drawn) (H-G[Nleu][Nlys][Nrpe]GGGGG[ξC](X1)-NH2) |
| inactive | CC(C)CN(CC(=O)N(CCCCN)CC(=O)N(CC(=O)NC(CSC1CC(=O)N(c2ccc(-c3c4ccc(=O)cc-4oc4cc(O)ccc34)c(C(=O)O)c2)C1=O)C(N)=O)[C@H](C)c1ccccc1)C(=O)CN (stereo partly drawn) (H-G[Nleu][Nlys][Nrpe][ξC](X1)-NH2) |
| Active | CC(C)CN(CC(=O)N(CCCCN)CC(=O)N(CC(=O)N(CC(=O)N(CCCCN)CC(=O)N(CC(=O)N(CCCCN)CC(=O)N(CCCCN)CC(N)=O)CC(C)C)Cc1ccc2c(c1)OCO2)[C@H](C)c1ccccc1)C(=O)CNCCCCN (H-[Nlys][Nleu][Nlys][Nrpe][Gly(N-piperonyl)][Nlys][Nleu][Nlys][Nlys]-NH2) |
